Results reported in US20200282052A1, “A COMBINATION THERAPY WITH APATINIB FOR THE TREATMENT OF CANCER” (Elevar Therapeutics, Inc., priority 2017, published 2020).
Structures can show the parent of a compound that is named as a salt.

Tests used:
[1] = in vivo; cited from earlier work
[2] = healthy volunteers, cited from earlier work
c-Kit = c-Kit (Homo sapiens, UniProt P10721); settings: cited from earlier work
[3] = test system: tumor bearing animal models; settings: cited from earlier work
VEGFR-2 = VEGFR-2 (Homo sapiens, UniProt P35968); settings: nonclinical studies; cited from earlier work
c-SRC = c-SRC (Homo sapiens, UniProt P12931); settings: cited from earlier work
[4] = test system: mouse LL/2 lung carcinoma; experiment: LL/2 lung carcinoma syngeneic mouse model; type: in vivo; settings: day 20; apatinib mesylate 300 mg/kg p.o. q.d., anti-muPD-1 antibody 10 mg/kg i.p. b.i.w.; C57BL/6 mice
Procedure: 40 female C57BL/6 mice purchased from Jackson Laboratories were enrolled on the study. Animals were housed for stabilization period. Animals were housed in individual HEPA ventilated cages (Innocage® IVC, Innovive USA). Fluorescent lighting was provided on a 12-hour cycle. Temperature and humidity was monitored and recorded daily and maintained to the maximum extent possible between 68-74° F. (20-23° C.) and 30-70% humidity, respectively. 2920×.10 18% soy irradiated rodent feed (Harlan) and autoclaved acidified water (pH 2.5-3) was provided ad libitum.
For inoculation, LL/2 cell viability was at 98%. Cryo vials containing LL/2 cells were thawed and prepared for injection into mice. On study day −3 cells were washed in PBS, counted, and re-suspended in cold PBS at concentrations of 250,000 viable cells/100 μL. Cell suspensions were mixed with PBS and kept on ice during transport to the vivarium. Cells for injections were prepared by withdrawing the PBS-cell mixture into a chilled 1 mL Lure-lok syringe fitted with a 26 7/8 G (0.5 mm×22 mm) needle. […]
Animals were monitored weekly for palpable tumors, or any changes in appearance or behavior. Once tumors were palpable, they were measured 3 times a week using calipers. Tumor volume was calculated using the following equation (longest diameter×shortest diameter 2)/2.
Body weight was measured at least three times a week. […]

[5] = test system: advanced or metastatic gastric cancer; settings: cited from earlier work
[6] = single dose, cited from earlier work

Chain of VEGFR-2 (P35968 20-1356, species assumed): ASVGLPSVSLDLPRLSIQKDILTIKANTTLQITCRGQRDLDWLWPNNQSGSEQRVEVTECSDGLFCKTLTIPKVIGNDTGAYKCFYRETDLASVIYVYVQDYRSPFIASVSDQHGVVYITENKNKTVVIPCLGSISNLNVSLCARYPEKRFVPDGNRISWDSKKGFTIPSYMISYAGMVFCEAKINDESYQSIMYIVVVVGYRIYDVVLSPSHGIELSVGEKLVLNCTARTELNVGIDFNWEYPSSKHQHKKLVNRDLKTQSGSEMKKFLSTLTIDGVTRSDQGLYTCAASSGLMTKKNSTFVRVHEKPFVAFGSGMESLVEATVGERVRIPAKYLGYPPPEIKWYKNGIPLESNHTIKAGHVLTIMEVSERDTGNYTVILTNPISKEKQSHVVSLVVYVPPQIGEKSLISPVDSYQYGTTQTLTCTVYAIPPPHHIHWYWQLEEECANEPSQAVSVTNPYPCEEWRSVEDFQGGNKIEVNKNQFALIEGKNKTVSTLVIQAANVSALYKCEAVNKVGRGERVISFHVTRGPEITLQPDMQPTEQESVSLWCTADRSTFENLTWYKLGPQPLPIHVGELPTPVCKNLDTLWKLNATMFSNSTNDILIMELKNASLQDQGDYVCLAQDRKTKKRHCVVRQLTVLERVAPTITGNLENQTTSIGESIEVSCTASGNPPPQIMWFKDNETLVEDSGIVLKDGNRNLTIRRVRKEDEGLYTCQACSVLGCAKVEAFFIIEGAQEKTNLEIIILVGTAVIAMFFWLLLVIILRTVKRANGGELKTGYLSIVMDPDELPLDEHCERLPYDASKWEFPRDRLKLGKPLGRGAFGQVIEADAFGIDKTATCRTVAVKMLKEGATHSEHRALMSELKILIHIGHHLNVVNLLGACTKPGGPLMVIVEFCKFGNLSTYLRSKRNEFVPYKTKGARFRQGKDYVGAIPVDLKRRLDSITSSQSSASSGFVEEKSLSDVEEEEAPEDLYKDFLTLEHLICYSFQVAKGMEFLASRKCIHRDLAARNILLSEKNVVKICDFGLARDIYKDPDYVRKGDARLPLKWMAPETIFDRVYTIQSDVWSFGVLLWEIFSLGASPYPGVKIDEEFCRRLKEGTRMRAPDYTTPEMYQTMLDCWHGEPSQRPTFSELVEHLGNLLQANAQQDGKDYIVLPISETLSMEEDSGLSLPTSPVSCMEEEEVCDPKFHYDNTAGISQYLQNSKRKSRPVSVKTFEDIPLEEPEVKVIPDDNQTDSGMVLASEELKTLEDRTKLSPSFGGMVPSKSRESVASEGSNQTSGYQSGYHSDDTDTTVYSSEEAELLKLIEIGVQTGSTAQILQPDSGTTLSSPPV
Chain of c-SRC (P12931 whole entry, species assumed): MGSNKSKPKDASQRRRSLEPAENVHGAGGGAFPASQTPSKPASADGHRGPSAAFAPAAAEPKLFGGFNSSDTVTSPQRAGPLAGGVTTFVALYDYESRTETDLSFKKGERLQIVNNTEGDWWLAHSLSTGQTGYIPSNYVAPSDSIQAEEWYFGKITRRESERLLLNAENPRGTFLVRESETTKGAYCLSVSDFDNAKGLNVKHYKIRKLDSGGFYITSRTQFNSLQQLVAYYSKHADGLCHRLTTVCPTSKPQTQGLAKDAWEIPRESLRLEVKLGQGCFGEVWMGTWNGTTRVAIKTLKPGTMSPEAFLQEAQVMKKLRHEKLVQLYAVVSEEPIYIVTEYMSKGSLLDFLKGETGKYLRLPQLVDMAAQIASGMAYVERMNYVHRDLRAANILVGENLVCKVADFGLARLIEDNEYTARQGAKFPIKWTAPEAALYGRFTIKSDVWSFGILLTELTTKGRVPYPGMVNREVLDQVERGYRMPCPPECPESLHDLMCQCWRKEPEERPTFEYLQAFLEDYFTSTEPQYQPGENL
Chain of c-Kit (P10721 26-976): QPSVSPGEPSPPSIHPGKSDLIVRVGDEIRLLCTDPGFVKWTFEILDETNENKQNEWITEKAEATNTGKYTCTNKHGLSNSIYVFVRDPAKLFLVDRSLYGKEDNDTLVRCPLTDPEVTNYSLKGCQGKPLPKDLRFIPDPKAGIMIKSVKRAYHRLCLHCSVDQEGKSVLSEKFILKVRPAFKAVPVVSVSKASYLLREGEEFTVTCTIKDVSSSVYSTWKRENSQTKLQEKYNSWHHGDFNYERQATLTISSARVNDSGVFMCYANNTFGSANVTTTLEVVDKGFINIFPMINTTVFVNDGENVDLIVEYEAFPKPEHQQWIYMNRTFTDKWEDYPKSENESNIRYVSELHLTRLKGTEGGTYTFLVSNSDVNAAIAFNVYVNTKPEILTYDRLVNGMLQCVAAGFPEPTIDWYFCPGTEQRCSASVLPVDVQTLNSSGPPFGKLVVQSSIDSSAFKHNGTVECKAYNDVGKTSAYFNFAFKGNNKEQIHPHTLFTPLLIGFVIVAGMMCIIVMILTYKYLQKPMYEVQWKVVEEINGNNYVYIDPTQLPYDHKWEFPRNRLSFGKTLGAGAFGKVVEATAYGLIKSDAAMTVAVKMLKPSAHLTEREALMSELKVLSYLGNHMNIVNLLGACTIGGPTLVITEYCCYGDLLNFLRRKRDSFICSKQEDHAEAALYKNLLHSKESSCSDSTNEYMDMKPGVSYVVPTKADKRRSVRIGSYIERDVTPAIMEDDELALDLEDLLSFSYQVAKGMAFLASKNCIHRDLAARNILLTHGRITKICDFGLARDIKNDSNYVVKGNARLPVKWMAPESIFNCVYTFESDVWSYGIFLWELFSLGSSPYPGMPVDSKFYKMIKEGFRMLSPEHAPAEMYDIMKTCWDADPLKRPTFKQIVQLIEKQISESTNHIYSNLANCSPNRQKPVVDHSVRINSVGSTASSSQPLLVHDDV

SMILES | Safety Profile: Heart [1] | Safety Profile: Central nervous system [1] | Safety Profile: Liver/Bile [1] | Safety Profile: Musculoskeletal/bone [1] | Safety Profile: Renal [1] | also measured
Cc1ccc(Nc2nccc(N(C)c3ccc4c(C)n(C)nc4c3)n2)cc1S(N)(=O)=O [Pazopanib] | R | – | – | – | – | –
Cc1nc(Nc2ncc(C(=O)Nc3c(C)cccc3Cl)s2)cc(N2CCN(CCO)CC2)n1 [Dasatinib] | – | R | R | R | R | –
CCN(CC)CCNC(=O)c1c(C)[nH]c(/C=C2\C(=O)Nc3ccc(F)cc32)c1C [Sunitinib] | R | R | R | – | – | –
Cc1cn(-c2cc(NC(=O)c3ccc(C)c(Nc4nccc(-c5cccnc5)n4)c3)cc(C(F)(F)F)c2)cn1 [Nilotinib] | – | R | – | R | R | Safety Profile: GI [1]: R; Safety Profile: Vascular [1]: R
CS(=O)(=O)CCNCc1ccc(-c2ccc3ncnc(Nc4ccc(OCc5cccc(F)c5)c(Cl)c4)c3c2)o1 [Lapatinib] | R | R | – | – | – | –
N#CC1(c2ccc(NC(=O)c3cccnc3NCc3ccncc3)cc2)CCCC1 [Rivoceranib, N-[4-(1-cyanocyclopentyl)phenyl]-2-{[(pyridin-4-yl)methyl]amino} pyridine-3-carboxamide] | – | – | – | – | – | food effects on the bioavailability ([2]; 81 mg rivoceranib dose): minimal; increase in bioavailability with food ([2]; 201 mg dose): 20-30%; inhibition of c-Kit tyrosine kinase (c-Kit): mildly inhibits; side effects in animals ([3]; at efficacious doses): minimal side effects; efficacy in various tumor bearing animal models ([3]; nonclinical studies): efficacious; binding to VEGFR-2 (VEGFR-2): selectively binds; inhibition of c-SRC tyrosine kinase (c-SRC): mildly inhibits; % Tumor growth inhibition [4]: 37%; median overall survival (OS) compared to placebo ([5]; Phase 3): prolonged; median progression-free survival (PFS) compared to placebo ([5]; Phase 3): prolonged; patients with Grade ¾ adverse reactions ([5]; hypertension, HFS, proteinuria, fatigue, anorexia, and elevated aminotransferase): more than 2%
N#CC1(c2ccc(NC(=O)c3cccnc3NCc3ccncc3)cc2)CCCC1 [rivoceranib mesylate] | – | – | – | – | – | AUC0-∞ in Chinese and Japanese subjects compared to Caucasian subjects ([6]; healthy male): slightly higher; Cmax in Chinese and Japanese subjects compared to Caucasian subjects ([6]; healthy male): slightly higher; t1/2 ([6]; similar amongst Caucasian, Japanese and Chinese groups): 7.5 to 8 h
CNC(=O)c1cc(Oc2ccc(NC(=O)Nc3ccc(Cl)c(C(F)(F)F)c3)cc2)ccn1 [Sorafenib] | R | R | R | R | R | Safety Profile: GI [1]: R; Safety Profile: Lung airways [1]: R
C#Cc1cccc(Nc2ncnc3cc(OCCOC)c(OCCOC)cc23)c1 [Erlotinib] | – | R | R | – | – | Safety Profile: Blood/lymph system [1]: R
